Measured values: patent publication US7459481B2, “Stimulation of CPT-1 as a means to reduce weight” (The Johns Hopkins University School of Medicine Licensing …, priority 2002, dated 2008)

How the values were obtained:
[1] = test system: MCF-7 cells; assay: Total cellular ATP (luciferase assay) in MCF-7 cells; assay type: cell-based, human; conditions: MCF-7, 10 μg/ml and 20 μg/ml, 2 hours, FIG. 5
Experimental: (§1) 1×10^5 MCF-7 cells were plated in 96 well plates. Cells were treated with C75 or vehicle. After 2 hours, ATP was measured using a luciferase assay using the ATP Bioluminescence Kit CLS II (Roche) following the manufacturer's protocol. Plates were read by a Perkin Elmer Wallac Victor^2 1420 luminometer. […] Similar results were obtained after 1 hr incubation with C75. Thus, cellular energy production increased as a result of C75 increasing fatty acid oxidation.

[2] = test system: CPT-1; assay: CPT-1 activity in differentiated 3T3-L1 adipocytes; assay type: cell-based, mouse; conditions: 2 hours
Experimental: CPT-1 activity was assayed in MCF-7 cells by the following published procedure: MCF-7 cells were plated in DMEM with 10% fetal bovine serum at 10^6 cells in 24-well plates in triplicate. Following overnight incubation at 37° C., the medium was removed and replaced with 700 μl of assay medium consisting of: 50 mM imidazole, 70 mM KCl, 80 mM sucrose, 1 mM EGTA, 2 mM MgCl2, 1 mM DTT, 1 mM KCN, 1 mM ATP, 0.1% fatty acid free bovine serum albumin, 70 μM palmitoyl-CoA, 0.25 μCi [methyl-^14C]L-carnitine, 40 μg digitonin with or without 20 μM malonyl-CoA. After incubation for 6 minutes at 37° C., the reaction was stopped by the addition of 500 μl of ice-cold 4 M perchloric acid. Cells were then harvested and centrifuged at 13,000×g for 5 min. […] The butanol phase was counted by liquid scintillation and represents the acylcarnitine derivative.
(§2) To expand the study of effects of C75 on fatty acid metabolism beyond cancer cell lines to normal adipocytes, differentiated (non-transformed) mouse NIH 3T3-L1 adipocytes were used in assays similar to those performed with the MCF-7 cells. […] The differentiated cells were ready to be used for experiments in 7-10 days.
(§3) C75 increased CPT-1 activity and fatty acid metabolism in the NIH 3T3-L1 cells differentiated into adipocytes. […] CPT-1 activity, fatty acid oxidation, and total cellular ATP were measured as described in Examples 2, 1, and 4. […]

[3] = test system: 3T3-L1 adipocytes; assay: Fatty acid oxidation in differentiated 3T3-L1 adipocytes; assay type: cell-based, mouse; conditions: 20 μg/ml or greater, 2 hours, FIG. 6
Experimental: Human breast cancer cell line MCF-7 was obtained from the American Type Culture Collection. 1×10^6 MCF-7 cells were plated in T-25 flasks in triplicate and incubated overnight at 37° C. Drugs were then added as indicated diluted from 5 mg/ml stock in DMSO. After 2 hours, medium with drugs was removed and cells were preincubated for 30 min. with 1.5 ml of the following buffer: 114 mM NaCl, 4.7 mM KCl, 1.2 mM KH2PO4, 1.2 mM MgSO4, glucose 11 mM. After preincubation, 200 μl of assay buffer was added containing: 114 mM NaCl, 4.7 mM KCl, 1.2 mM KH2PO4, 1.2 mM MgSO4, glucose 11 mM, 2.5 mM palmitate (containing with 10 μCi of [1-^14C]palmitate) bound to albumin, 0.8 mM L-carnitine, and cells were incubated at 37° C. for 2 h. […] The flasks with wells were then incubated for 2 h at 37° C. after which the benzothonium hydrochloride was removed and counted for ^14C. […]
as §2, §3

[4] = test system: 3T3-L1 adipocytes; assay: Total cellular ATP in differentiated 3T3-L1 adipocytes; assay type: cell-based, mouse; conditions: 20 μg/ml or greater, 2 hours, FIG. 7
Experimental: as §1
To expand the study of effects of C75 on fatty acid metabolism beyond cancer cell lines to normal adipocytes, differentiated (non-transformed) mouse NIH 3T3-L1 adipocytes were used in assays similar to those performed with the MCF-7 cells. 3T3-L1 cells were obtained from the American Type Culture Collection, and cells were cultured in DMEM with high glucose (4.5 g/l ) (Gibco 12100-046) with 10% fetal calf serum and Biotin (Sigma B-4639) 0.008 g/L. Differentiation was initiated three days after the cells were confluent, when the standard culture medium was replaced with differentiation medium. […] The differentiated cells were ready to be used for experiments in 7-10 days.
as §3

[5] = Respiratory exchange ratio by indirect calorimetry (Oxymax) in mice; assay type: in vivo
Experimental: In keeping with the C75 effect on both human and murine CPT-1 and fatty acid metabolism, C75 induces a profound and rapid stimulation of fatty acid oxidation in vivo. Mice were maintained in the Oxymax calorimeter (Oxymax Equal Flow System®, Columbus Instruments, Columbus, Ohio). Oxygen consumption and CO2 production was measured in up to four mice simultaneously using the indirect calorimeter. Measurements were recorded every 15 minutes over the entire course of the experiments. The respiratory exchange ratio (RER) was calculated by the Oxymax® software version 5.9. RER is defined as the ratio of CO2 to O2 at any given time irrespective if equilibrium was reached. Mice were maintained on water and mouse chow ad libitum. In the control mice (FIG. 8A), note the diurnal variation of RER indicating feeding and resting cycles of the animals. An RER of 1 is consistent with oxidation of carbohydrates while 0.7 indicates oxidation of fatty acids. […] C75 treatment at 30 mg/kg disrupts the diurnal pattern of the control mice, showing a rapid drop in RER to complete oxidation of fatty acids within about 2 hours. […] Importantly, the rate of decline of RER was similar to that observed for animals deprived of food (data not shown).

[6] = target: FAS (Homo sapiens, UniProt P49327); assay: FAS activity, malonyl-CoA dependent oxidation of NADPH at OD340; assay type: biochemical
FAS, sequence (P49327 whole entry): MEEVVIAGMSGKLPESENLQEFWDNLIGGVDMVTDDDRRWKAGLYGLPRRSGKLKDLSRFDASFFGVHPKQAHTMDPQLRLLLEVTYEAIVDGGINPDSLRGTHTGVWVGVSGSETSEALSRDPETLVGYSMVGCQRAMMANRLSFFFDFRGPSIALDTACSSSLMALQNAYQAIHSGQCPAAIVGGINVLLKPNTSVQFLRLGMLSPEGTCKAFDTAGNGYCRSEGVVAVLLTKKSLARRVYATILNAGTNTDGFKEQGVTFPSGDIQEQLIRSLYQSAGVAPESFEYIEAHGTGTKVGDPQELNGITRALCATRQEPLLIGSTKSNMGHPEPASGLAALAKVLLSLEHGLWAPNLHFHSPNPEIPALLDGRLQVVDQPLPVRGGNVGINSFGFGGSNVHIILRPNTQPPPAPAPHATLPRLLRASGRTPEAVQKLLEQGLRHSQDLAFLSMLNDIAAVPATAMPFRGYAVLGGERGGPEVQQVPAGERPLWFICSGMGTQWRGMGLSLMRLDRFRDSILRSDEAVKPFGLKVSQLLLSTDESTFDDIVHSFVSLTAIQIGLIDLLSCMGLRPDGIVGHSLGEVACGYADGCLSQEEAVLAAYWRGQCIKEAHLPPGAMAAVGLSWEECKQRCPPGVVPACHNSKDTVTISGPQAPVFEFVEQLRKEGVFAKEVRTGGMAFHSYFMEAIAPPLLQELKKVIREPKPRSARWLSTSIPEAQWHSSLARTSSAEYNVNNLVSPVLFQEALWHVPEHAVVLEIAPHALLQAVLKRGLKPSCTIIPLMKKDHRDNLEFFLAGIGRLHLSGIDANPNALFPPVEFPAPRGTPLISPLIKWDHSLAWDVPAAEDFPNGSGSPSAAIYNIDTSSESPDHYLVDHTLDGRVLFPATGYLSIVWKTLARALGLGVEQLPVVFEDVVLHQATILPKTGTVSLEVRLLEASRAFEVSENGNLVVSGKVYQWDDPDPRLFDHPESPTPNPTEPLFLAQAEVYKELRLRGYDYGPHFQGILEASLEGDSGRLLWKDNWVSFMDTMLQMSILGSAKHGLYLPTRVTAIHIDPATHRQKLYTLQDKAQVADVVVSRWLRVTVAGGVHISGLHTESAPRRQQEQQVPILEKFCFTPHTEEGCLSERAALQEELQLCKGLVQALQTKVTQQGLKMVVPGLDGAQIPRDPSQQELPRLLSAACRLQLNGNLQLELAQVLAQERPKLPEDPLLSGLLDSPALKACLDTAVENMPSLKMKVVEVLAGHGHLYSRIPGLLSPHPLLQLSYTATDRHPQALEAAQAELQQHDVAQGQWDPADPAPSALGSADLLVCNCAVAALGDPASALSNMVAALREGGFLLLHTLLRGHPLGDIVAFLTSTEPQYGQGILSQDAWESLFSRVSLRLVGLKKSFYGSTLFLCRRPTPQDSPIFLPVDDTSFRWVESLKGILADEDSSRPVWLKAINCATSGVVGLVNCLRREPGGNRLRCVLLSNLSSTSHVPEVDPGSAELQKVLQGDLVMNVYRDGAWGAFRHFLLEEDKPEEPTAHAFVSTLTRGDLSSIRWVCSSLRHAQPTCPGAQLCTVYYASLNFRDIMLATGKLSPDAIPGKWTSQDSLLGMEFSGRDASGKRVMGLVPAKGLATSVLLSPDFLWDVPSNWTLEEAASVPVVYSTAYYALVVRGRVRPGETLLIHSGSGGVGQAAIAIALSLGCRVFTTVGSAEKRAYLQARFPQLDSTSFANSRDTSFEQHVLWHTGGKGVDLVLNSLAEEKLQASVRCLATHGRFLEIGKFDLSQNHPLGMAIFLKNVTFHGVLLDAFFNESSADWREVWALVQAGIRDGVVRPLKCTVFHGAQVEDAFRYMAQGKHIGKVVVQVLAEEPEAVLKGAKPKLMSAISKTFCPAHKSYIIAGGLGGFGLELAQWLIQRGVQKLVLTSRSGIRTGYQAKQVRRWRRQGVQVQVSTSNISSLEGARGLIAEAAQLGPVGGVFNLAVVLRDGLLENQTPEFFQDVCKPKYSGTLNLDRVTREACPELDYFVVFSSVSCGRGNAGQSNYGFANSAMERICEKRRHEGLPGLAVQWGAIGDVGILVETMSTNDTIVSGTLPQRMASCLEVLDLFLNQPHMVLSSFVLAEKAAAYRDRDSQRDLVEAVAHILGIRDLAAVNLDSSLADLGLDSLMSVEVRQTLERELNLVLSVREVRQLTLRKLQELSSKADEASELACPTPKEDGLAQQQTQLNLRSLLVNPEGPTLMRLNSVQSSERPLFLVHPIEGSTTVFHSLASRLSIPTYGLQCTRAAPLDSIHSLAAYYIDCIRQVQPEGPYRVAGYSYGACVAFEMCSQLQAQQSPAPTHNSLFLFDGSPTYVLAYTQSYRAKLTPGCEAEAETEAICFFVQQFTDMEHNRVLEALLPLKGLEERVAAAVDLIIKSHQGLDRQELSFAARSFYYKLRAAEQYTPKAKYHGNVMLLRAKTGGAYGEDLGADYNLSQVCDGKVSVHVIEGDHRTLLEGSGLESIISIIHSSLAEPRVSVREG
Experimental: FAS activity was measured by monitoring the malonyl-CoA dependent oxidation of NADPH spectrophotometrically at OD340 in 96-well plates, as described in International Patent Publication WO 2004/005277. The IC50 for the compounds against FAS was determined by plotting the change in OD340 against time for each inhibitor concentration tested and determining the rate of change by linear regression. The concentration of a particular compound yielding 50% inhibition of the rate for FAS in the absence of the compound is the IC50. Stimulation of CPT-1 activity was measured as described in Example 2, except the cells were preincubated with the compound for 2 hours at the concentrations indicated in the table. Stimulation of Fatty acid oxidation was determined as described in Example 1 for cells preincubated with the compounds at the concentrations indicated in the table.

Question: With `C=C1C(=O)OC(CCCCCCCC)C1C(=O)O` (stereo not shown) [Compound C75] as the molecule, how does the “total cellular ATP” value [1] read?
Answer: significant increase

Question: What about the “increase in CPT-1 activity above control” value [2] of the same molecule?
Answer: 377%

Question: And the fatty acid oxidation [3]?
Answer: significantly increased

Question: What about the “levels of ATP” value [4] of the same molecule?
Answer: significantly increased

Question: What about the “time for RER drop to oxidation of fatty acids” value ([5]; 30 mg/kg) of the same molecule?
Answer: ≤ 2 h

Question: What about the “respiratory exchange ratio (RER) after treatment” value ([5]; FIG. 8B) of the same molecule?
Answer: ~0.7

Question: What about the “FAS Inhibition (IC50)” value [6] of the same molecule?
Answer: 55 µg/mL
